Source: the supplement of paper PMC12592484

Assays:
Test in all cases: drug sensitivity score (DSS2, normalised partial AUC of dose-response, 72 h CellTiter-Glo viability) (DSS (dimensionless)); higher = more sensitive (stronger growth inhibition / cytotoxicity); extreme values may be limits of the assay
22Rv1 = tested on: 22Rv1
How it was run: (§1)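 Five doses spanning a 10,000-fold range were pre-dispensed into 384-well plates, into which low-passage primary prostate cancer-associated fibroblasts, PF179T, WPMY-1, LNCaP and 22Rv1 cells were seeded. After 72 h, CellTiter-Glo 2.0 luminescence measured viability, scaled to vehicle and positive-control wells. Higher values of the drug sensitivity score, a BREEZE-computed partial area under the fitted logistic dose–response curve divided by the log of the upper asymptote, mean greater sensitivity.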

CAF#1 = tested on: CAF#1 (primary prostate cancer-associated fibroblasts of myCAF-like type)
How it was run: as §1

CAF#2 = tested on: CAF#2 (primary prostate cancer-associated fibroblasts of iCAF-like type)
How it was run: as §1

CAF#3 = tested on: CAF#3 (primary prostate cancer-associated fibroblasts of myCAF-like type)
How it was run: as §1

CAF#4 = tested on: CAF#4 (primary prostate cancer-associated fibroblasts of iCAF-like type)
How it was run: as §1

CAF#5 = tested on: CAF#5 (primary prostate cancer-associated fibroblasts of myCAF-like type)
How it was run: as §1

CAF#6 = tested on: CAF#6 (primary prostate cancer-associated fibroblasts of iCAF-like type)
How it was run: as §1

CAF#7 = tested on: CAF#7 (primary prostate cancer-associated fibroblasts of myCAF-like type)
How it was run: as §1

LNCAP = tested on: LNCAP
How it was run: as §1

PF179T = tested on: PF179T
How it was run: as §1

WPMY-1 = tested on: WPMY-1
How it was run: as §1

Row | SMILES | drug sensitivity score (22Rv1) | drug sensitivity score (CAF#1) | drug sensitivity score (CAF#2) | drug sensitivity score (CAF#3) | drug sensitivity score (CAF#4) | drug sensitivity score (CAF#5) | drug sensitivity score (CAF#6) | drug sensitivity score (CAF#7) | drug sensitivity score (LNCAP) | drug sensitivity score (PF179T) | drug sensitivity score (WPMY-1)
1 | O=C(/C=C/c1cccnc1)NCCCCC1CCN(C(=O)c2ccccc2)CC1 [Daporinad] (tested concentration range 0.1-1000 nM) | 25.6 | 13.9 | 25.8 | 12.8 | 23.6 | 13.9 | 16.5 | 17.5 | 26.9 | 21.3 | 29.4
2 | COCC1(CO)C(=O)C2CCN1CC2 (centres undefined) [Eprenetapopt] (tested concentration range 1-10000 nM) | 0 | 0.1 | 0 | 0 | 0 | 0.4 | 0 | 0.2 | 0 | 0 | 0
3 | O=C(Nc1cccnc1)N1CCC(Cc2cccc(Oc3ccc(C(F)(F)F)cn3)c2)CC1 [PF-3845] (tested concentration range 1-10000 nM) | 2.3 | 0 | 0 | 0.2 | 0 | 0 | 0 | 0 | 3.3 | 3 | 4.6
4 | C[C@@]1(C(=O)Nc2ccc(F)nc2)CCCN1c1nc(Nc2cc(C3CC3)n[nH]2)c2cccn2n1 (tested concentration range 1-10000 nM) | 12.4 | 10.4 | 12.2 | 9 | 7.9 | 10.7 | 8.7 | 10.5 | 6.4 | 9.4 | 15.6
5 | Cn1nnc2c(C(N)=O)ncn2c1=O [Temozolomide] (tested concentration range 10-100000 nM) | 0 | 0 | 0 | 0 | 0 | 0 | 0 | 0 | 0 | 0 | 0
6 | Cc1nc(C(=O)NCC(=O)O)c(O)c2ccc(Oc3ccccc3)cc12 [Roxadustat] (tested concentration range 1-10000 nM) | 0 | 0 | 0 | 0 | 0 | 0.2 | 0 | 0 | 0 | 0 | 0
7 | O=C(O)CCCCC(CCSCc1ccccc1)SCc1ccccc1 (centres undefined) [Devimistat] (tested concentration range 1-10000 nM) | 0 | 0 | 0 | 0 | 0 | 0 | 0 | 0 | 0 | 0 | 0
8 | Nc1ccn([C@@H]2O[C@H](CO)[C@@H](O)[C@@H]2O)c(=O)n1 [Cytarabine] (tested concentration range 1-10000 nM) | 14.3 | 1.8 | 10 | 0 | 5.4 | 1.9 | 0.5 | 2.6 | 11.9 | 12.9 | 7.7
9 | NC1(c2ccc(-c3nc4ccn5c(=O)[nH]nc5c4cc3-c3ccccc3)cc2)CCC1 [MK-2206] (tested concentration range 0.1-1000 nM) | 5.8 | 2.7 | 2.6 | 4 | 2 | 3 | 3.2 | 1.8 | 11.1 | 1.8 | 2.4
10 | CO[C@@H]1[C@H](N(C)C(=O)c2ccccc2)C[C@H]2O[C@]1(C)n1c3ccccc3c3c4c(c5c6ccccc6n2c5c31)C(=O)NC4 [Midostaurin] (tested concentration range 1-10000 nM) | 0 | 18.7 | 20.7 | 12.5 | 16.1 | 16.5 | 18.3 | 19.8 | 4.2 | 18.4 | 11.9
11 | CC(O)c1cc(C(=O)N[C@@H](C)Cn2ccc(-c3ccc(C#N)c(Cl)c3)n2)n[nH]1 (some centres undefined) [Darolutamide] (tested concentration range 0.2-2500 nM) | 0.6 | 3.1 | 2.2 | 0.1 | 4.4 | 2.9 | 0 | 0 | 0.1 | 0 | 0
12 | C=CC(=O)N1CCC[C@@H](n2nc(-c3ccc(Oc4ccccc4)cc3)c3c(N)ncnc32)C1 [Ibrutinib] (tested concentration range 0.1-1000 nM) | 0 | 0.1 | 0 | 0.2 | 0 | 0.7 | 0 | 0 | 0 | 0 | 0
13 | COc1cc2c(Oc3ccc(NC(=O)C4(C(=O)Nc5ccc(F)cc5)CC4)cc3F)ccnc2cc1OCCCN1CCOCC1 [Foretinib] (tested concentration range 0.1-1000 nM) | 3.4 | 6.8 | 10.3 | 7.9 | 6.9 | 6.7 | 5.2 | 7 | 5.6 | 6.8 | 7.9
14 | O[C@H]1CC[C@H](Nc2ncc3nc(Nc4c(F)cc(F)cc4F)n([C@H]4CCOC4)c3n2)CC1 [Tanzisertib] (tested concentration range 1-10000 nM) | 0 | 0 | 0 | 3.3 | 0 | 0 | 0.2 | 0 | 1.3 | 0 | 0
15 | Nc1nccc(-c2c(-c3ccc(F)cc3)ncn2C2CCCCC2)n1 (tested concentration range 1-10000 nM) | 6.1 | 0 | 0.6 | 2.1 | 0.1 | 0 | 0 | 0 | 4.6 | 0 | 0
16 | COc1cc(C)c(/C=C/C(C)=C/C=C/C(C)=C/C(=O)O)c(C)c1C [Acitretin] (tested concentration range 1-10000 nM) | 0 | 1.7 | 4 | 0.2 | 0.1 | 0.8 | 0.4 | 0 | 0 | 6.3 | 0
17 | O=c1[nH]c(=O)n([C@H]2C[C@H](O)[C@@H](CO)O2)cc1F [Floxuridine] (tested concentration range 1-10000 nM) | 6 | 1.8 | 4.3 | 1.1 | 2 | 1.4 | 2.3 | 3 | 15.2 | 5.1 | 24
18 | CC(C)Oc1ccc(C(=O)N[C@H](CNC(=O)CN(C)C)Cc2ccc(-c3cn4cccc([C@H](C)O)c4n3)cc2)cc1Cl (tested concentration range 1-10000 nM) | 10.9 | 1.4 | 9.8 | 2.5 | 5.5 | 3 | 3.2 | 2.4 | 19.1 | 9 | 24.5
19 | COc1ccc(CCc2nc3cc(-c4c(C)noc4C)ccc3n2C[C@H](C)N2CCOCC2)cc1Cl [SGC-CBP30] (tested concentration range 2.5-25000 nM) | 6.2 | 1.6 | 1.5 | 5.4 | 1.3 | 0.8 | 2.2 | 1.2 | 8.5 | 0.1 | 7.4
20 | COC(=O)N[C@@H](C)CNc1nccc(-c2cn(C(C)C)nc2-c2cc(Cl)cc(NS(C)(=O)=O)c2F)n1 [Encorafenib] (tested concentration range 0.1-1000 nM) | 2.3 | 0.6 | 0 | 2 | 0.5 | 0.7 | 0.9 | 1.3 | 2.3 | 0.6 | 0
21 | CCOc1cc2ncc(C#N)c(Nc3ccc(OCc4ccccn4)c(Cl)c3)c2cc1NC(=O)/C=C/CN(C)C [Neratinib] (tested concentration range 0.1-1000 nM) | 2.4 | 1.6 | 2.1 | 4.6 | 2.5 | 0 | 3.1 | 4.2 | 3.6 | 2.4 | 2
22 | CN(C)CC#Cc1ccc(OCCCc2sc(N3CCc4cccc(C(=O)Nc5nc6ccccc6s5)c4C3)nc2C(=O)O)c(F)c1 (tested concentration range 1-10000 nM) | 0 | 2.7 | 2.3 | 0.2 | 14.4 | 3.2 | 5.6 | 4.1 | 6.1 | 0 | 1.4
23 | Nc1nc(Cl)nc2c1ncn2[C@H]1C[C@H](O)[C@@H](CO)O1 [Cladribine] (tested concentration range 0.1-1000 nM) | 1.7 | 0 | 2.7 | 0.5 | 0 | 0.1 | 0 | 0.6 | 5.2 | 3.9 | 5.1
24 | NS(=O)(=O)OC[C@@H]1C[C@@H](n2ccc3c(N[C@H]4CCc5ccccc54)ncnc32)C[C@@H]1O [Pevonedistat] (tested concentration range 1-10000 nM) | 18.9 | 4.4 | 13 | 0 | 7 | 9 | 5.7 | 5 | 29.6 | 6.4 | 12.6
